From patent US9957263B2, “Bromodomain inhibitors” (AbbVie Inc., priority 2013, dated 2018) come the findings set out here.

Each structure is given as a SMILES string.

Experiment [1] concerns the target BRD4 (BDII_E352-M457) (Homo sapiens (Human), UniProt O60885). Description: TR-FRET bromodomain binding assay, BRD4 second bromodomain. The note with it: His-tagged BD2, Alexa647-labeled probe 30 nM. Summed up:
(§1)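 Affinity for each isolated His-tagged domain was measured as competition with a fluorescent Alexa647 BET-inhibitor probe in a TR-FRET format at pH 6.0, 1 h room temperature incubation. Ki values were calculated from fitted IC50s, probe Kd and probe level (100 nM BDI, 30 nM BDII).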

Experiment [2] addresses BRD4 (BDI_K57-E168) (Homo sapiens (Human), UniProt O60885). Put plainly: TR-FRET bromodomain binding assay, BRD4 first bromodomain. The note with it: His-tagged BD1, Alexa647-labeled probe 100 nM. In outline: as §1

For the compound `Cn1cc(-c2cc(S(C)(=O)=O)ccc2Oc2cccc(NS(=O)(=O)c3ccc(F)cc3Cl)c2)c2cc[nH]c2c1=O` [Example 58, 2-chloro-4-fluoro-N-{3-[2-(6-methyl-7-oxo-6,7-dihydro-1H-pyrrolo[2,3-c]pyridin-4-yl)-4-(methylsulfonyl)phenoxy]phenyl}benzenesulfonamide], the inhibition constant Ki in experiment [1] was 2.4 nM; in experiment [2], 4.7 nM.

For `Cn1cc(-c2cc(S(C)(=O)=O)ccc2Oc2cccc(NCc3cccc(C#N)c3)c2)c2cc[nH]c2c1=O` [Example 60, 3-[({3-[2-(6-methyl-7-oxo-6,7-dihydro-1H-pyrrolo[2,3-c]pyridin-4-yl)-4-(methylsulfonyl)phenoxy]phenyl}amino)methyl]benzonitrile], the results for the Ki in experiment [1] and in experiment [2] were 2 nM and 7.9 nM, respectively.

Regarding `Cn1cc(-c2cc(S(C)(=O)=O)ccc2Oc2cccc(NCc3ccc(C#N)cc3)c2)c2cc[nH]c2c1=O` [Example 61, 4-[({3-[2-(6-methyl-7-oxo-6,7-dihydro-1H-pyrrolo[2,3-c]pyridin-4-yl)-4-(methylsulfonyl)phenoxy]phenyl}amino)methyl]benzonitrile], the inhibition constant Ki in experiment [1] worked out at 1.3 nM; in experiment [2], 3.7 nM.

With `Cn1cc(-c2cc(S(C)(=O)=O)ccc2Oc2cccc(NCc3ccc(F)cc3)c2)c2cc[nH]c2c1=O` [Example 62, 4-[2-{3-[(4-fluorobenzyl)amino]phenoxy}-5-(methylsulfonyl)phenyl]-6-methyl-1,6-dihydro-7H-pyrrolo[2,3-c]pyridin-7-one], the figures for the Ki in experiment [1] and in experiment [2] were 1.4 nM and 3.1 nM, respectively.

As for `CCS(=O)(=O)c1ccc(OCC2CC2(F)F)c(-c2cn(C)c(=O)c3[nH]c(C#CCN(C)C)cc23)c1` (centres unmarked) [Example 63, 4-{2-[(2,2-difluorocyclopropyl)methoxy]-5-(ethylsulfonyl)phenyl}-2-[3-(dimethylamino)prop-1-yn-1-yl]-6-methyl-1,6-dihydro-7H-pyrrolo[2,3-c]pyridin-7-one], the inhibition constant Ki in experiment [1] amounted to 3.3 nM; in experiment [2], 1.3 nM.

As for `COCCNc1cccc(Oc2ccc(S(C)(=O)=O)cc2-c2cn(C)c(=O)c3[nH]ccc23)c1` [Example 64, 4-[2-{3-[(2-methoxyethyl)amino]phenoxy}-5-(methylsulfonyl)phenyl]-6-methyl-1,6-dihydro-7H-pyrrolo[2,3-c]pyridin-7-one], the Ki in experiment [1] was 3.4 nM; in experiment [2] it was 5.2 nM.

On to `Cn1cc(-c2cc(S(C)(=O)=O)ccc2Oc2cccc(NCC3CCCO3)c2)c2cc[nH]c2c1=O` (centres unmarked) [Example 65, 6-methyl-4-[5-(methylsulfonyl)-2-{3-[(tetrahydrofuran-2-ylmethyl)amino]phenoxy}phenyl]-1,6-dihydro-7H-pyrrolo[2,3-c]pyridin-7-one], for which the Ki in experiment [1] was found to be 2.1 nM; in experiment [2], 6.9 nM.

Take `COc1cccc(CNc2cccc(Oc3ccc(S(C)(=O)=O)cc3-c3cn(C)c(=O)c4[nH]ccc34)c2)c1` [Example 66, 4-[2-{3-[(3-methoxybenzyl)amino]phenoxy}-5-(methylsulfonyl)phenyl]-6-methyl-1,6-dihydro-7H-pyrrolo[2,3-c]pyridin-7-one]: the Ki was determined as 1.7 nM in experiment [1] and 3.8 nM in experiment [2].

For the compound `Cn1cc(-c2cc(S(C)(=O)=O)ccc2Oc2cccc(NCc3ccccc3F)c2)c2cc[nH]c2c1=O` [Example 67, 4-[2-{3-[(2-fluorobenzyl)amino]phenoxy}-5-(methylsulfonyl)phenyl]-6-methyl-1,6-dihydro-7H-pyrrolo[2,3-c]pyridin-7-one], the figures for the Ki in experiment [1] and in experiment [2] were 2.8 nM and 4.3 nM, respectively.

In the case of `Cn1cc(-c2cc(S(C)(=O)=O)ccc2Oc2cccc(NCc3cccc(F)c3)c2)c2cc[nH]c2c1=O` [Example 68, 4-[2-{3-[(3-fluorobenzyl)amino]phenoxy}-5-(methylsulfonyl)phenyl]-6-methyl-1,6-dihydro-7H-pyrrolo[2,3-c]pyridin-7-one], the figures for the Ki in experiment [1] and in experiment [2] were 4.7 nM and 10 nM, respectively.

Consider `Cn1cc(-c2cc(S(C)(=O)=O)ccc2Oc2cccc(NCc3cccc(OC(F)(F)F)c3)c2)c2cc[nH]c2c1=O` [Example 69, 6-methyl-4-[5-(methylsulfonyl)-2-(3-{[3-(trifluoromethoxy)benzyl]amino}phenoxy)phenyl]-1,6-dihydro-7H-pyrrolo[2,3-c]pyridin-7-one], for which the inhibitory constant (Ki) amounted to 1.6 nM in experiment [1] and 4.1 nM in experiment [2].

Regarding `Cc1ccc(CNc2cccc(Oc3ccc(S(C)(=O)=O)cc3-c3cn(C)c(=O)c4[nH]ccc34)c2)c(C)c1` [Example 70, 4-[2-{3-[(2,4-dimethylbenzyl)amino]phenoxy}-5-(methylsulfonyl)phenyl]-6-methyl-1,6-dihydro-7H-pyrrolo[2,3-c]pyridin-7-one], the Ki in experiment [1] came to 6.5 nM; in experiment [2], 16 nM.

With `Cn1cc(-c2cc(S(C)(=O)=O)ccc2Oc2cccc(NCc3ccccc3C#N)c2)c2cc[nH]c2c1=O` [Example 71, 2-[({3-[2-(6-methyl-7-oxo-6,7-dihydro-1H-pyrrolo[2,3-c]pyridin-4-yl)-4-(methylsulfonyl)phenoxy]phenyl}amino)methyl]benzonitrile], the Ki in experiment [1] turned out to be 19 nM; in experiment [2], 33 nM.

For `Cn1cc(-c2cc(S(C)(=O)=O)ccc2Oc2cccc(NCc3ccc(F)cc3Cl)c2)c2cc[nH]c2c1=O` [Example 72, 4-[2-{3-[(2-chloro-4-fluorobenzyl)amino]phenoxy}-5-(methylsulfonyl)phenyl]-6-methyl-1,6-dihydro-7H-pyrrolo[2,3-c]pyridin-7-one], the Ki in experiment [1] turned out to be 4.1 nM; in experiment [2] it was 7.4 nM.

Turning to `Cn1cc(-c2cc(S(C)(=O)=O)ccc2Oc2cccc(NCc3cc(F)cc(F)c3)c2)c2cc[nH]c2c1=O` [Example 73, 4-[2-{3-[(3,5-difluorobenzyl)amino]phenoxy}-5-(methylsulfonyl)phenyl]-6-methyl-1,6-dihydro-7H-pyrrolo[2,3-c]pyridin-7-one], the Ki turned out to be 3.5 nM in experiment [1] and 5.6 nM in experiment [2].

Turning to `CN(C)CCCOc1ccc(CNc2cccc(Oc3ccc(S(C)(=O)=O)cc3-c3cn(C)c(=O)c4[nH]ccc34)c2)cc1` [Example 74, 4-{2-[3-({4-[3-(dimethylamino)propoxy]benzyl}amino)phenoxy]-5-(methylsulfonyl)phenyl}-6-methyl-1,6-dihydro-7H-pyrrolo[2,3-c]pyridin-7-one], the Ki amounted to 1.4 nM in experiment [1] and 4.3 nM in experiment [2].

With `CN(C)c1cccc(CNc2cccc(Oc3ccc(S(C)(=O)=O)cc3-c3cn(C)c(=O)c4[nH]ccc34)c2)c1` [Example 75, 4-[2-(3-{[3-(dimethylamino)benzyl]amino}phenoxy)-5-(methylsulfonyl)phenyl]-6-methyl-1,6-dihydro-7H-pyrrolo[2,3-c]pyridin-7-one], the Ki was found to be 2.9 nM in experiment [1] and 8.5 nM in experiment [2].

Take `Cn1cc(-c2cc(S(C)(=O)=O)ccc2Oc2cccc(NCc3ccc4c(c3)OCCO4)c2)c2cc[nH]c2c1=O` [Example 76, 4-[2-{3-[(2,3-dihydro-1,4-benzodioxin-6-ylmethyl)amino]phenoxy}-5-(methylsulfonyl)phenyl]-6-methyl-1,6-dihydro-7H-pyrrolo[2,3-c]pyridin-7-one]: the Ki is 1.1 nM in experiment [1] and 3.3 nM in experiment [2].

Consider `Cn1cc(-c2cc(S(C)(=O)=O)ccc2Oc2cccc(NCC3CCOC3)c2)c2cc[nH]c2c1=O` (centres unmarked) [Example 77, 6-methyl-4-[5-(methylsulfonyl)-2-{3-[(tetrahydrofuran-3-ylmethyl)amino]phenoxy}phenyl]-1,6-dihydro-7H-pyrrolo[2,3-c]pyridin-7-one], for which the Ki in experiment [1] came out at 2.8 nM; in experiment [2], 11 nM.

Consider `CC(=O)Nc1ccc(CNc2cccc(Oc3ccc(S(C)(=O)=O)cc3-c3cn(C)c(=O)c4[nH]ccc34)c2)cc1` [Example 78, N-{4-[({3-[2-(6-methyl-7-oxo-6,7-dihydro-1H-pyrrolo[2,3-c]pyridin-4-yl)-4-(methylsulfonyl)phenoxy]phenyl}amino)methyl]phenyl}acetamide], for which the Ki in experiment [1] is 0.6 nM; in experiment [2], 0.9 nM.

Consider `COc1ccc(CNc2cccc(Oc3ccc(S(C)(=O)=O)cc3-c3cn(C)c(=O)c4[nH]ccc34)c2)cc1` [Example 79, 4-[2-{3-[(4-methoxybenzyl)amino]phenoxy}-5-(methylsulfonyl)phenyl]-6-methyl-1,6-dihydro-7H-pyrrolo[2,3-c]pyridin-7-one], for which the inhibition constant (Ki) was 2.7 nM in experiment [1] and 7.8 nM in experiment [2].

As for `Cn1cc(-c2cc(S(C)(=O)=O)ccc2Oc2cccc(NCC3CC3)c2)c2cc[nH]c2c1=O` [Example 80, 4-[2-{3-[(cyclopropylmethyl)amino]phenoxy}-5-(methylsulfonyl)phenyl]-6-methyl-1,6-dihydro-7H-pyrrolo[2,3-c]pyridin-7-one], the Ki was found to be 4.6 nM in experiment [1] and 19 nM in experiment [2].

Take `Cn1cc(-c2cc(S(C)(=O)=O)ccc2Oc2cccc(NCCC3CCCC3)c2)c2cc[nH]c2c1=O` [Example 81, 4-[2-{3-[(2-cyclopentylethyl)amino]phenoxy}-5-(methylsulfonyl)phenyl]-6-methyl-1,6-dihydro-7H-pyrrolo[2,3-c]pyridin-7-one]: the inhibitory constant (Ki) in experiment [1] is 10 nM; in experiment [2] it was 35 nM.

For `CCS(=O)(=O)c1ccc(Oc2ccc(Cl)cc2C#CCN2CCOCC2)c(-c2cn(C)c(=O)c3[nH]ccc23)c1` [Example 82, 4-[2-{4-chloro-2-[3-(morpholin-4-yl)prop-1-yn-1-yl]phenoxy}-5-(ethylsulfonyl)phenyl]-6-methyl-1,6-dihydro-7H-pyrrolo[2,3-c]pyridin-7-one], the inhibitory constant (Ki) in experiment [1] turned out to be 8.5 nM; in experiment [2], 39 nM.

`CCS(=O)(=O)c1ccc(Oc2ccc(Cl)cc2CCCN2CCOCC2)c(-c2cn(C)c(=O)c3[nH]ccc23)c1` [Example 83, 4-[2-{4-chloro-2-[3-(morpholin-4-yl)propyl]phenoxy}-5-(ethylsulfonyl)phenyl]-6-methyl-1,6-dihydro-7H-pyrrolo[2,3-c]pyridin-7-one]: the Ki stood at 3.5 nM in experiment [1] and 5.3 nM in experiment [2].
